tested on: HCV replicon; assay: Replicon based assay of HCV replication inhibition (NPT ELISA); type: cell-based, Hepatitis C virus; conditions: Hepatitis C virus, Huh-7, 72 h, Table I; Huh-7 HCV replicon-containing cells, three days; read-out: Activity
Experimental: Compounds claimed herein are tested for the ability to inhibit viral replication of the Hepatitis C replicon in cultured cells in which the HCV replicon construct has been incorporated. The HCV replicon system was described by Bartenschlager, et. al (Science, 285, pp. 110-113 (1999)). The replicon system is predictive of in vivo anti-HCV activity; compounds that are active in humans uniformly evidence activity in the replicon assay.
In this assay HCV replicon containing cells are treated with different concentrations of the test compound to ascertain the ability of the test compound to suppress replication of the HCV replicon. As a positive control, HCV replicon-containing cells are treated with different concentrations of interferon alpha, a known inhibitor of HCV replication. The replicon assay system includes Neomycin Phosphotransferase (NPT) as a component of the replicon itself in order to detect the transcription of replicon gene products in the host cell. Cells in which the HCV replicon is actively replicating have high levels of NPT; the level of NPT is proportional to HCV replication. […] The NPT level of each sample is measured using a captured ELISA.
A protocol for testing compounds for the ability to inhibit viral replication of the Hepatitis C replicon cultured cells in which the replicon construct has been incorporated, follows.
The HCV replicon contains, 5′-3′, the HCV-IRES, the neomycin phosphotransferase (neo) gene, the IRES of encephalomyocarditis virus, which directs translation of HCV sequences NS3 to NS5B, and the 3′-NTR. The sequence of the HCV replicon has been deposited in GenBank (Accession no. AJ242652).
The replicon is transfected into Huh-7 cells using standard methods such as electroporation.
The equipment and materials include, but are not limited to, Huh-7 HCV replicon-containing cells, maintenance media (DMEM (Dulbecco's modified Eagle media) supplemented with 10% FBS, L-glutamine, non-essential amino acids, penicillin (100 units/ml), streptomycin (100 micrograms/ml), and 500 micrograms/ml of Geneticin (G418), screening media (DMEM supplemented with 10% FBS, L-glutamine, non-essential amino acids, penicillin (100 units/ml) and streptomycin (100 micrograms/ml)), 96 well tissue culture plates (flat bottom), 96 well plates (U bottom for drug dilution), Interferon alpha for positive control, fixation reagent (such as methanol: acetone), primary antibody (rabbit anti-NPTII), secondary antibody: Eu-N1l, and enhancement solution.
The cells are then seeded onto 96-well plates at a density of 6000-7500 cells/100 microliters/well (6-7.5×10^5 cells/10 ml/plate). The plates are then incubated at 37° C. in a 5% CO2 incubator.
HCV replicon-containing cells are rinsed with once PBS once; 2 mls of trypsin are then added. Cells are incubated at 37° C. in a 5% CO2 incubator for 3-5 minutes. 10 mls of complete medium is added to stop the reaction. Cells are blown gently, put into a 15 ml tube, and spun at 1200 rpm for four minutes. The trypsin/medium solution is removed and 5 mls of medium (500 ml DMEM (high glucose)) from BRL catalog #12430-054; 50 mls 10% FBS, 5% Geneticin G418 (50 mg/ml, BRL catalog #10131-035), 5 ml MEM non-essential amino acids (100×BRL #11140-050) and 5 ml pen-strep (BRL # 15140-148) is added. The cells and media are mixed carefully
Cells are plated with screening medium (500 ml DMEM (BRL #21063-029), 50 ml FBS (BRL #10082-147) and 5 ml MEM non-essential amino acid (BRL #11140-050) at 6000-7500 cells/100 μl/well of 96 well plate (6-7.5×10^5 cells/10 ml/plate). Plates are placed into 37° C. 5% CO2 incubator overnight.
The following morning, drugs (test compounds or interferon alpha) are diluted in 96 well U bottom plates with media or DMSO/media, depending on the final concentration chosen for screening. Generally for 6 concentrations of each test compounds ranging from 10 micromolar to 0.03 micromolar are applied. […]

**Q.** How did the EC50 turn out when `CCCCc1ccc(CNc2nc(-c3cccnc3)cs2)cc1` [compound 82, N-(4-butylbenzyl)-4-(pyridin-3-yl)thiazol-2-amine] was run?
**A.** The EC50 was greater than 10000 nM.

**Q.** How did the EC50 turn out when `c1ccc(Oc2cccc(CCNc3nc(-c4cccnc4)cs3)c2)cc1` [compound 83, N-(3-phenoxyphenethyl)-4-(pyridin-3-yl)thiazol-2-amine] was run?
**A.** The EC50 was greater than 10000 nM.

**Q.** Which EC50 does the source give for `c1ccc(Oc2ccc(CCNc3nc(-c4cccnc4)cs3)cc2)cc1` [compound 84, N-(4-phenoxyphenethyl)-4-(pyridin-3-yl)thiazol-2-amine] here?
**A.** Its EC50 is greater than 10000 nM.

**Q.** How did the EC50 turn out when `CCCCCOc1ccc(Nc2nc(-c3cccnc3)cs2)cc1` [compound 85, N-(4-(pentyloxy)phenyl)-4-(pyridin-3-yl)thiazol-2-amine] was run?
**A.** The EC50 was less than 1000 nM.

**Q.** Which EC50 does the source give for `CCCCCc1ccc(Nc2nc(-c3cccnc3)cs2)cc1` [compound 86, N-(4-pentylphenyl)-4-(pyridin-3-yl)thiazol-2-amine] here?
**A.** Its EC50 is less than 1000 nM.

**Q.** For `c1ccc(COc2cccc(Nc3nc(-c4cccnc4)cs3)c2)cc1` [compound 87, N-(3-(benzyloxy)phenyl)-4-(pyridin-3-yl)thiazol-2-amine], which EC50 is on record?
**A.** Its EC50 is less than 1000 nM.

**Q.** How did the EC50 turn out when `c1ccc(Oc2cccc(Nc3nc(-c4cccnc4)cs3)c2)cc1` [compound 88, N-(3-phenoxyphenyl)-4-(pyridin-3-yl)thiazol-2-amine] was run?
**A.** Its EC50 is less than 1000 nM.

**Q.** Which EC50 does the source give for `c1ccc(CCOc2cccc(Nc3nc(-c4cccnc4)cs3)c2)cc1` [compound 89] here?
**A.** The EC50 was less than 1000 nM.

**Q.** `CCCCCCOc1ccc(Nc2nc(-c3cccnc3)cs2)cc1` [compound 90, N-(4-(hexyloxy)phenyl)-4-(pyridin-3-yl)thiazol-2-amine] was tested. Which EC50 did it give?
**A.** Its EC50 is less than 1000 nM.

**Q.** How did the EC50 turn out when `CCCCOc1ccc(Nc2nc(-c3cccnc3)cs2)cc1` [compound 91, N-(4-butoxyphenyl)-4-(pyridin-3-yl)thiazol-2-amine] was run?
**A.** Its EC50 is less than 1000 nM.

**Q.** Which EC50 does the source give for `CCCCCCCOc1ccc(Nc2nc(-c3cccnc3)cs2)cc1` [compound 92, N-(4-(heptyloxy)phenyl)-4-(pyridin-3-yl)thiazol-2-amine] here?
**A.** Its EC50 is less than 1000 nM.

**Q.** How did the EC50 turn out when `CCCCCCCCOc1ccc(Nc2nc(-c3cccnc3)cs2)cc1` [compound 93, N-(4-(octyloxy)phenyl)-4-(pyridin-3-yl)thiazol-2-amine] was run?
**A.** The EC50 was less than 1000 nM.

**Q.** `CCCCCCCCc1ccc(Nc2nc(-c3cccnc3)cs2)cc1` [compound 95, N-(4-octylphenyl)-4-(pyridin-3-yl)thiazol-2-amine] was tested. Which EC50 did it give?
**A.** The EC50 was less than 1000 nM.

**Q.** With `CCCCc1ccc(Nc2nc(-c3cccnc3)cs2)cc1` [compound 96, N-(4-butylphenyl)-4-(pyridin-3-yl)thiazol-2-amine] as the compound, how does the EC50 read?
**A.** Its EC50 is 1000 to 10000 nM.

**Q.** How did the EC50 turn out when `c1ccc(Cc2cccc(Nc3nc(-c4cccnc4)cs3)c2)cc1` [compound 97, N-(3-benzylphenyl)-4-(pyridin-3-yl)thiazol-2-amine] was run?
**A.** The EC50 was less than 1000 nM.

**Q.** How did the EC50 turn out when `N#CCc1ccc(Nc2nc(-c3cccnc3)cs2)cc1` [compound 98, 2-(4-(4-(pyridin-3-yl)thiazol-2-ylamino)phenyl)acetonitrile] was run?
**A.** The EC50 was greater than 10000 nM.

**Q.** For `c1cncc(-c2csc(Nc3ccc(N4CCOCC4)cc3)n2)c1` [compound 99, N-(4-morpholinophenyl)-4-(pyridin-3-yl)thiazol-2-amine], which EC50 is on record?
**A.** The EC50 was greater than 10000 nM.

**Q.** Which EC50 does the source give for `c1cncc(-c2csc(Nc3ccc(C4CCCCC4)cc3)n2)c1` [compound 100, N-(4-cyclohexylphenyl)-4-(pyridin-3-yl)thiazol-2-amine] here?
**A.** Its EC50 is less than 1000 nM.

**Q.** `c1cncc(-c2csc(Nc3ccc(N4CCCCC4)cc3)n2)c1` [compound 101, N-(4-(piperidin-1-yl)phenyl)-4-(pyridin-3-yl)thiazol-2-amine] was tested. Which EC50 did it give?
**A.** The EC50 was greater than 10000 nM.

**Q.** With `c1cncc(-c2csc(Nc3ccc(-c4csnn4)cc3)n2)c1` [compound 102, N-(4-(1,2,3-thiadiazol-4-yl)phenyl)-4-(pyridin-3-yl)thiazol-2-amine] as the compound, how does the EC50 read?
**A.** Its EC50 is greater than 10000 nM.

**Q.** With `c1cncc(-c2csc(Nc3ccc(-n4ccnc4)cc3)n2)c1` [compound 103, N-(4-(1H-imidazol-1-yl)phenyl)-4-(pyridin-3-yl)thiazol-2-amine] as the compound, how does the EC50 read?
**A.** Its EC50 is greater than 10000 nM.

**Q.** Which EC50 does the source give for `c1cncc(-c2csc(Nc3ccc4c(c3)Cc3ccccc3-4)n2)c1` [compound 104, N-(9H-fluoren-7-yl)-4-(pyridin-3-yl)thiazol-2-amine] here?
**A.** Its EC50 is 1000 to 10000 nM.
